The conditions of series [1]: cited from earlier work.
The conditions of series [2]: oral dosing, rats; cited from earlier work.
For series [3], the system named is sedation / general anesthesia. The following applies: in vivo; cited from earlier work.
The conditions of series [4]: orally administered propofol; dose-normalized oral vs intravenous; cited from earlier work.
Series [5] can be described thus: Regional gastrointestinal absorption of propofol prodrug. In kind it is in vivo. The following applies: oral; colon vs upper gastrointestinal tract.
Setting [6] is: oral dose of 25-200 mg dolasetron.
[7] abbreviates: oral dose of 5-20 mg granisetron.

Read-outs that look alike come from different tables or passages of the source.

We go through six compounds from patent US20070259933A1, “COMPOSITIONS, DOSAGE FORMS AND METHODS OF TREATING EMESIS” (XenoPort, Inc., priority 2006, published 2007).

Consider `Cc1nccn1CC1CCc2c(c3ccccc3n2C)C1=O` (stereo not shown) [ondansetron], for which, in series [1] (oral dose of 8 mg ondansetron), the AUC was 101 to 351 ng·mL/h, the maximum plasma concentration is 20 to 52 ng/mL, the oral bioavailability is reported as 48-75% and the terminal elimination half-life is 2.5 to 6.2 h.
As to `CC(C)c1cccc(C(C)C)c1O` [propofol, 2,6-diisopropylphenol], the “fraction of administered drug undergoing first pass metabolism” value in series [2] is given as “approximately 90%”. Also, in series [3], the “propofol plasma concentrations needed for sedation” value is listed as 1,500-2,000 ng/mL and the “propofol plasma concentrations needed for the maintenance of general anesthesia” value is given as 3,000-10,000 ng/mL. Further, the absolute oral bioavailability entry in series [4] is recorded as “less than 2%”.
As to `O=C(O[C@@H]1C[C@@H]2C[C@H]3C[C@H](C1)N2CC3=O)c1c[nH]c2ccccc12` [dolasetron], in series [1] (setting [6]), the AUC result is “about 1,233 ng·mL·h^−1”, the oral bioavailability is 70-89% and the terminal elimination half-life was 5 to 10 h.
As for `CC(C)c1cccc(C(C)C)c1OC(=O)OC[C@H](N)C(=O)O` [(S)-2-amino-3-(2,6-diisopropylphenoxycarbonyloxy)-propanoic acid], the gastrointestinal absorption entry in series [5] is “limited colonic absorption”.
In the case of `CN1[C@@H]2CC[C@H]1C[C@@H](OC(=O)c1c[nH]c3ccccc13)C2` [tropisetron], in series [1] (oral dose of 5 mg tropisetron), the AUC entry is reported as “about 230 ng·mL·h^−1”, the maximum plasma concentration result is on record as “about 22 ng/mL”, the oral bioavailability is reported as 60-99% and the terminal elimination half-life was 8.6 h.
With `CN1C2CCCC1CC(NC(=O)c1nn(C)c3ccccc13)C2` (stereo not shown) [granisetron], in series [1] (setting [7]), the AUC was 83 to 350 ng·mL/h, the maximum plasma concentration is 14 to 68 ng/mL and the terminal elimination half-life is 1.5 to 5.7 h.
